Experimental data as given in patent US10500222B2, “Compositions and methods relating to treatment of infection” (Wayne State University, priority 2015, dated 2019).
Entries after “also recorded” stand apart in the source; their conditions may differ.

Test system: P. aeruginosa KEI 1025 infected cornea
Test: Histopathology of eyes infected with KEI 1025
Type: in vivo, C57BL/6 (B6) mice
Conditions: vs PBS
Description: The left eyes of B6 mice (n=5/group/time) were injected with 5 μl of 2 μg/μl glycyrrhizin (GLY) (Sigma-Aldrich, St. Louis, Mo.) or PBS (control) subconjunctivally, one day before infection. Similar treatment was done using carbenoxolone (CBX) (Sigma-Aldrich, St. Louis, Mo.). All mice were injected intraperitoneally (IP) at 1 and 3 days p.i. with 100 μl of GLY (2 μg/μl) or CBX (1 μg/μl). PBS served as control for all these experiments. In a separate similar experiment mice were treated one day before infection with GLY subconjunctivally and injected intraperitoneally (i.p.) with GLY plus recombinant (r) HMGB1 (1 μg/100 μl) or GLY plus PBS. IP injections were similarly given at 1 and 3 days p.i. In an additional experiment, KEI 1025 infected B6 mice were treated with 5 μl of 2 μg/μl GLY subconjunctivally at 6 hours p.i. and injected intraperitoneally at 1 and 3 days p.i. with 100 μl of GLY (2 μg/μl).
Whole eyes infected with KEI 1025 (n=3/group/time) were enucleated from GLY or PBS treated B6 mice at 3 and 5 days p.i. Eyes were immersed in PBS, rinsed, and fixed in 1% osmium tetroxide, 2.5% glutaraldehyde, and 0.2 M Sorenson's phosphate buffer (pH 7.4) (1:1:1) at 4° C. for 3 h. Eyes were rinsed with 0.1 M phosphate buffer, dehydrated in graded ethanols and propylene oxide, and then infiltrated and embedded in Epon-araldite. Thick sections (1.5 μm) were cut, stained with Richardson's stain, observed, and photographed (Leica DM4000B, Leica Microsystems, Inc.).
The left eyes of B6 mice (n=5/group/time) were infected as above with Pseudomonas KEI 1025 strain. These infected B6 mice were treated by topical administration of GLY. Pseudomonas aeruginosa infected left cornea received 5 μL of GLY (20 μg/μL) topically beginning 6 (or 8) hours post infection and continued 2× daily for days 1-4 post infection.

SMILES: CC1(C)[C@@H](O[C@H]2O[C@H](C(=O)O)[C@@H](O)[C@H](O)[C@H]2O[C@@H]2O[C@H](C(=O)O)[C@@H](O)[C@H](O)[C@H]2O)CC[C@]2(C)[C@H]3C(=O)C=C4[C@@H]5C[C@@](C)(C(=O)O)CC[C@]5(C)CC[C@@]4(C)[C@]3(C)CC[C@@H]12 [GLY, glycyrrhizin]
- histopathology: cellular infiltrate, corneal destruction (pretreatment subconj. + IP, 3 days p.i.): markedly reduced cellular infiltrate; also recorded: reduced corneal destruction and infiltrate
- histopathology: cellular infiltrate, damage to the cornea (pretreatment subconj. + IP, 5 days p.i.): markedly reduced cellular infiltrate; also recorded: reduced damage to the cornea and a decreased cellular infiltrate
- histopathology: damage to the cornea, cellular infiltrate (topical GLY from 6 hours p.i. and days 1-4 twice each day, 5 days p.i.): reduced damage to the cornea and a decreased cellular infiltrate
